For orientation: IC50 means the midpoint of a concentration-inhibition curve. Low readings indicate greater potency, high ones weaker potency.

A short description of this assay: Inhibition of ACAT2 (unknown origin).

Consider `COc1ccc([C@@H]2O[C@H](c3ccc(OC(C)C(O)c4ccc5c(c4)COC5)c(OC)c3)[C@H](C)[C@@H]2C)cc1OC` (stereo partly specified), for which 124 µM corresponded to half-maximal inhibition (IC50).

These data come from BindingDB's records for PubMed 38701715 (Shaanxi University of Chinese Medicine).
